These results are taken from patent US20190060249A1 (priority 2017, published 2019).

The assay deals with T1, ALDH3A1 (Homo sapiens, UniProt P30838).
T1 sequence (P30838 1-453): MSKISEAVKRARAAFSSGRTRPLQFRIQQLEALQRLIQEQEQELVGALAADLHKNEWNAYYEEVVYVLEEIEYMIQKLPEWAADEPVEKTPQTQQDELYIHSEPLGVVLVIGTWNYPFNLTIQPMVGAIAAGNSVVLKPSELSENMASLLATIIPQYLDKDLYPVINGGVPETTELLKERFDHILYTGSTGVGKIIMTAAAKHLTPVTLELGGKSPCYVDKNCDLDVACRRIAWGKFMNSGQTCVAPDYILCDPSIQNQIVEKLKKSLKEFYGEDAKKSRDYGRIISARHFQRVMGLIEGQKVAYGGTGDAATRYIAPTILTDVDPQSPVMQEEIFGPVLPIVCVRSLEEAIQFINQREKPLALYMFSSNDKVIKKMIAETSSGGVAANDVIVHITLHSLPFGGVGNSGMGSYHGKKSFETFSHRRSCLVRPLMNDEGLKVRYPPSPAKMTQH
Kind of assay: ALDH enzymatic assay (spectrophotometric), recombinant ALDH3A1. The format is biochemical. Conditions: 10 mM acetaldehyde, propionaldehyde, benzaldehyde, cinnamaldehyde, decanal, heptaldehyde or 200 μM 4-hydroxynonenal; 100 μM compound. An excerpt:
To determine if ALDH3A1 activation is sufficient to protect salivary glands from radiation-induced dysfunction, a library of 135 traditional Chinese medicine extracts donated from Sun Ten Pharmaceutical Co., Taiwan, was screened using a spectroscopic enzyme activity assay and purified recombinant ALDH3A1. […] We then conducted high performance liquid chromatography (HPLC) fractionation of the extracts and nuclear magnetic resonance (NMR) characterization of the fractions. Based on the NMR fingerprint, we identified known constituents of similar fingerprints and purchased the commercially available compounds to test using the enzyme activity assay.
ALDH enzymatic assay: ALDH1A1, ALDH1A2, 2, 3A1, 3A2, 4A1, 5A1, 7A1 were measured as previously described using 5 μg/ml of recombinant protein (Chen, C. H., Cruz, L. A., and Mochly-Rosen, D. (2015) Pharmacological recruitment of aldehyde dehydrogenase 3A1 (ALDH3A1) to assist ALDH2 in acetaldehyde and ethanol metabolism in vivo. Proceedings of the National Academy of Sciences of the United States of America 112, 3074-3079). […] Assays were conducted in 50 mM NaPPi buffer (pH 7.4) in the presence of 2.5 mM NAD^+ and 10 mM substrate and measured in triplicate at 25° C. Dose response curve fits and EC50's were calculated using GraphPad Prism 7 software.
Activity measured in presence of compound concentrations from 6 nM to 400 μM.

Regarding `C=CCc1ccc2c(c1)OCO2` [Alda-89, safrole, reference compound], the “substrate specificity of increase in ALDH3A1 catalytic activity” value is “only increase the catalytic activity of ALDH3A1 towards small aldehydes like acetaldehyde and propionaldehyde but not aromatic or long-chain aldehydes”.
